Reference: patent publication US20090117083A1, “IMMUNOMODULATORY ALKALOIDS” (M N L PHARMA LIMITED, priority 2004, published 2009)
pIC50, pKi: −log10 of the molar value. Like-named read-outs stand apart in the source and are kept apart here.

Tests used:
spleen cells = test: Cytokine modulation in spleen cells (IFN-γ); type: cell-based, BALB/c mice; conditions: for IFN-γ: Table 3.2
Experimental: BALB/c male and female mice bred and maintained at the University of Strathclyde under conventional conditions were used at varying age.
Cells suspensions were prepared by using the end of a syringe and grinding the spleen through a wire mesh. The cell suspension was then centrifuged at 1000 rpm for 5 minutes. To remove the erythrocytes, the cell pellet was resuspended in Boyle's solution (Tris 0.17M & Ammonium Chloride 0.16M) and centrifuged again for 5 minutes. The pellet was then washed in medium a further two times, then resuspended in 3 mls medium. A cell count was then carried out.
All spleen cell experiments were carried out in 96-well tissue culture plates. […] Unstimulated wells contained 100 μl of cells and 100 μl of medium. The stimulated wells contained 100 μl of cells plus 50 μl of LPS at 1 μg/ml or 50 μl anti-CD3 at 0.5 μg/ml and 50 μl of medium. The remaining wells contained 100 μl cells, 5 μl of MNLP compound and either 50 μl of anti-CD3 or medium alone.
The appropriate Mabs and standards were used according to the protocol described for IL-12 (described in Example 1, above).

α-D-glucosidase [1] = molecular target: T1, α-D-glucosidase (Saccharomyces cerevisiae, UniProt P53341); test: Glycosidase inhibition (p-nitrophenyl substrate): α-D-glucosidase, yeast; type: biochemical, Saccharomyces cerevisiae (Baker's yeast); conditions: for inhibition at 1000 µg/mL: 1 mg/ml
T1 construct: purchased Sigma
T1 sequence (P53341 whole entry): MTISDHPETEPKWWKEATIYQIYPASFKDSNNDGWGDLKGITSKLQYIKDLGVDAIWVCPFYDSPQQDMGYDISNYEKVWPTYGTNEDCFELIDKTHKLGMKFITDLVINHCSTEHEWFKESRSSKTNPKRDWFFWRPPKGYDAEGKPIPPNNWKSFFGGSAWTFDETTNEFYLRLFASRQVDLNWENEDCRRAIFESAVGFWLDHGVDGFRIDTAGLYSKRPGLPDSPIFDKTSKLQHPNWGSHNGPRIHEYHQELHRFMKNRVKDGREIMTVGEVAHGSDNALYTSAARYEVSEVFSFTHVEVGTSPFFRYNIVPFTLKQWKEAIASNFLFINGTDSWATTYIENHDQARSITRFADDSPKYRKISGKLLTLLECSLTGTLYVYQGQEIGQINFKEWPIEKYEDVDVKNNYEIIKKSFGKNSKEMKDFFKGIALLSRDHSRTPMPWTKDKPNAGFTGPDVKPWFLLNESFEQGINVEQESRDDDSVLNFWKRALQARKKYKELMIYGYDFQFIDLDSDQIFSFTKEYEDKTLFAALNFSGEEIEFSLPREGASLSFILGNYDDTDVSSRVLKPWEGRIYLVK
Experimental: (§1) All enzymes were purchased from Sigma, as were the appropriate p-nitrophenyl substrates. Assays were carried out in microtitre plates. Enzymes were assayed in 0.1M citric acid/0.2M di-sodium hydrogen phosphate (McIlvaine) buffers at the optimum pH for the enzyme. All assays were carried out at 20° C. For screening assays the incubation assay consisted of 10 μl of enzyme solution, 10 μl of inhibitor solution (made up in water) and 50 μl of the appropriate 5 mM p-nitrophenyl substrate (3.57 mM final conc.) made up in McIlvaine buffer at the optimum pH for the enzyme.
(§2) The reactions were stopped with 0.4M glycine (pH 10.4) during the exponential phase of the reaction, which was determined at the beginning of the assay using blanks with water, which were incubated for a range of time periods to measure the reaction rate using 5 mM substrate solution. Endpoint absorbances were read at 405 nm with a Biorad microtitre plate reader (Benchmark). Water was substituted for the inhibitors in the blanks.

α-D-glucosidase [2] = molecular target: T2, α-D-glucosidase (Oryza sativa subsp. japonica, UniProt Q653V7); test: Glycosidase inhibition: α-D-glucosidase, rice; type: biochemical, rice (Oryza sativa); conditions: 1 mg/ml
T2 construct: purchased Sigma
T2 sequence (Q653V7 34-885): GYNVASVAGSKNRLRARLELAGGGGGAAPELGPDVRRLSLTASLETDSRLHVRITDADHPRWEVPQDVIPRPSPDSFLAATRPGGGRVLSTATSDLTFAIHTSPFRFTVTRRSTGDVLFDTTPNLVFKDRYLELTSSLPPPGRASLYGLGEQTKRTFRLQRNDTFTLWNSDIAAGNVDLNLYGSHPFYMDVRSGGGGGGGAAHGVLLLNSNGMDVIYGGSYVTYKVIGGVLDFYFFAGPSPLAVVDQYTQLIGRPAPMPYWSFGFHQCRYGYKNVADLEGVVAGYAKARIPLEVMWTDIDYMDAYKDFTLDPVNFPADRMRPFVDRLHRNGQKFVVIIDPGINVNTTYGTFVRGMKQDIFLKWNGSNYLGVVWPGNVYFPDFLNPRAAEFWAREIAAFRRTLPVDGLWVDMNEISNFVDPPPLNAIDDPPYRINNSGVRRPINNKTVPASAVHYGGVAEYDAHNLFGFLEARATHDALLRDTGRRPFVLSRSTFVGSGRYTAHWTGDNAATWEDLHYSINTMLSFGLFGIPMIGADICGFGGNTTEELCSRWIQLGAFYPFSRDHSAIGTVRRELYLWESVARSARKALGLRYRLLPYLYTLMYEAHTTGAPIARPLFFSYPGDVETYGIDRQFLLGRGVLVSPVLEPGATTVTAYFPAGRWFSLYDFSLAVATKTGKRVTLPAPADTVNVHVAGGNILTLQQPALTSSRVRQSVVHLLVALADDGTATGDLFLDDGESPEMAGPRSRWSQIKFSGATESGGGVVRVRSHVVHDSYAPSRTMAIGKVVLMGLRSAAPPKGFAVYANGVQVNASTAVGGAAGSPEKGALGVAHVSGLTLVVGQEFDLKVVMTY
Experimental: as §1, §2

α-D-glucosidase [3] = test: Glycosidase inhibition: α-D-glucosidase, Bacillus; type: biochemical, Bacillus stearothermophilus; conditions: 1 mg/ml
Experimental: as §1, §2

β-D-glucosidase = test: Glycosidase inhibition: β-D-glucosidase, almond; type: biochemical, Almonds (Prunus sp.)
Experimental: as §1, §2

α-D-galactosidase = molecular target: T3, α-D-galactosidase (Coffea arabica, UniProt Q42656); test: Glycosidase inhibition: α-D-galactosidase; type: biochemical, Green coffee beans (Coffea sp.); conditions: 1 mg/ml
T3 construct: purchased Sigma
T3 sequence (Q42656 16-378): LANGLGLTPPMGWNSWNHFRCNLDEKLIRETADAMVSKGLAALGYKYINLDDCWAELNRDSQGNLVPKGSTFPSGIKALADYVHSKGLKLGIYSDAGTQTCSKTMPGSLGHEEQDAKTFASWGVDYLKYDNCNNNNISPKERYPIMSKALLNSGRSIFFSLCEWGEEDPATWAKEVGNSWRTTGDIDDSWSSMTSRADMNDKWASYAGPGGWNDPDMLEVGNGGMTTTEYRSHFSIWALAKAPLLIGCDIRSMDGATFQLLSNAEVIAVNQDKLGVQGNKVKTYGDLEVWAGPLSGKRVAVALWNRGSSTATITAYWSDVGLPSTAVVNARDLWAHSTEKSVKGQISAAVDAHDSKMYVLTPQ
Experimental: as §1, §2

β-D-galactosidase = test: Glycosidase inhibition: β-D-galactosidase; type: biochemical, Bovine; conditions: 1 mg/ml
Experimental: as §1, §2

α-D-mannosidase = molecular target: T4, α-D-mannosidase (Canavalia ensiformis, UniProt C0HJB3); test: Glycosidase inhibition: α-D-mannosidase; type: biochemical, Jack beans (Canavalia ensiformis)
T4 construct: purchased Sigma
T4 sequence (C0HJB3 whole entry): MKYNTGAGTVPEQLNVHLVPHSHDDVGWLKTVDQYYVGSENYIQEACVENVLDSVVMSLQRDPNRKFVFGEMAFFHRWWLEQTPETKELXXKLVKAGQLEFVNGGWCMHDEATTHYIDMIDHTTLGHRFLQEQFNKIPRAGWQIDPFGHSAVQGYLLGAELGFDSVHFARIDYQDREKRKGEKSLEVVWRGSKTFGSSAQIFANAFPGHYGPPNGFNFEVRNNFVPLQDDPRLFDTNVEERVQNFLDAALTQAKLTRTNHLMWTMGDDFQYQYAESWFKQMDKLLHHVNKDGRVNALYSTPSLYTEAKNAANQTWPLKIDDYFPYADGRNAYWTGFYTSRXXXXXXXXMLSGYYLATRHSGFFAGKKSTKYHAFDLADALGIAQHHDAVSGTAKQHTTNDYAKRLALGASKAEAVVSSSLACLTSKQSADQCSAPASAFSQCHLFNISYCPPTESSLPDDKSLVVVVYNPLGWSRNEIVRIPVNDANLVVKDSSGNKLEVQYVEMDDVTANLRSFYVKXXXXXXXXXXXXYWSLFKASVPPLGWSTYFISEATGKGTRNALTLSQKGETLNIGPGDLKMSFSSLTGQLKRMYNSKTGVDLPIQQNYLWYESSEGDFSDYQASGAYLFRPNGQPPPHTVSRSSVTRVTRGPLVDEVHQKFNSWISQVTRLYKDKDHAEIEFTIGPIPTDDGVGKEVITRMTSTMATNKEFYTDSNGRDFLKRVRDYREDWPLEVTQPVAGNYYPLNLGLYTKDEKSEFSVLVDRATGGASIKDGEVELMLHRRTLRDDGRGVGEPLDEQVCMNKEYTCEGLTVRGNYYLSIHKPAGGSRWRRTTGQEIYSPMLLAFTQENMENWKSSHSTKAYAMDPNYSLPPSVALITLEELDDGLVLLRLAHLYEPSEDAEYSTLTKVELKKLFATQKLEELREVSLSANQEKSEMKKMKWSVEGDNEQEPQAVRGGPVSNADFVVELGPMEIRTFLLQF
Experimental: All enzymes were purchased from Sigma, as were the appropriate p-nitrophenyl substrates. Assays were carried out in microtitre plates. Enzymes were assayed in 0.1M citric acid/0.2M di-sodium hydrogen phosphate (McIlvaine) buffers at the optimum pH for the enzyme. All assays were carried out at 20° C.
Endpoint absorbances were read at 405 nm with a Biorad microtitre plate reader (Benchmark). Water was substituted for the inhibitors in the blanks.

α-L-fucosidase = molecular target: T5, α-L-fucosidase (Bos taurus, UniProt Q2KIM0); test: Glycosidase inhibition: α-L-fucosidase; type: biochemical, Bovine; conditions: 1 mg/ml
T5 construct: purchased Sigma
T5 sequence (Q2KIM0 23-468): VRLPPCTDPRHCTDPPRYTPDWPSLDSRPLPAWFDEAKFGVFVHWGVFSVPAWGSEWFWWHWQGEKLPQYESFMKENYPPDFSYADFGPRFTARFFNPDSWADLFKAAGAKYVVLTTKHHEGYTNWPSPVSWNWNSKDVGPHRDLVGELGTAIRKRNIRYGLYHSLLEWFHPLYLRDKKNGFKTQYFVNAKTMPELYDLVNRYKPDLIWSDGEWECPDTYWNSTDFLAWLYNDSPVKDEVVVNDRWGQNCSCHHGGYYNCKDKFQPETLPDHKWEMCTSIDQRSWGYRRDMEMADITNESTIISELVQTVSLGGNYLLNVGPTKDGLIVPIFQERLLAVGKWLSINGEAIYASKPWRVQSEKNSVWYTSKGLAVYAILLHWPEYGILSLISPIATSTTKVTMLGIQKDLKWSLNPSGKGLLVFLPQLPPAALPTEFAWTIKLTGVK
Experimental: as §1, §2

Naringinase = test: Glycosidase inhibition: Naringinase; type: biochemical, Penecillium decumbens; conditions: 1 mg/ml
Experimental: as §1, §2

[4] = system: N-acetyl-β-D-glucosaminidase; test: Glycosidase inhibition: N-acetyl-β-D-glucosaminidase; type: biochemical, Bovine; conditions: 1 mg/ml
Experimental: as §1, §2

[5] = molecular target: rabbit gut mucosa α-D-glucosidase; test: Inhibition of rabbit gut mucosa α-D-glucosidase; type: biochemical
[6] = molecular target: T6, rabbit small intestine sucrase (Oryctolagus cuniculus, UniProt P07768); test: Inhibition of rabbit small intestine sucrase; type: biochemical; conditions: 700 μM
T6 construct: from tissue; host or cells: rabbit small intestine
T6 sequence (P07768 1008-1827 limits assumed): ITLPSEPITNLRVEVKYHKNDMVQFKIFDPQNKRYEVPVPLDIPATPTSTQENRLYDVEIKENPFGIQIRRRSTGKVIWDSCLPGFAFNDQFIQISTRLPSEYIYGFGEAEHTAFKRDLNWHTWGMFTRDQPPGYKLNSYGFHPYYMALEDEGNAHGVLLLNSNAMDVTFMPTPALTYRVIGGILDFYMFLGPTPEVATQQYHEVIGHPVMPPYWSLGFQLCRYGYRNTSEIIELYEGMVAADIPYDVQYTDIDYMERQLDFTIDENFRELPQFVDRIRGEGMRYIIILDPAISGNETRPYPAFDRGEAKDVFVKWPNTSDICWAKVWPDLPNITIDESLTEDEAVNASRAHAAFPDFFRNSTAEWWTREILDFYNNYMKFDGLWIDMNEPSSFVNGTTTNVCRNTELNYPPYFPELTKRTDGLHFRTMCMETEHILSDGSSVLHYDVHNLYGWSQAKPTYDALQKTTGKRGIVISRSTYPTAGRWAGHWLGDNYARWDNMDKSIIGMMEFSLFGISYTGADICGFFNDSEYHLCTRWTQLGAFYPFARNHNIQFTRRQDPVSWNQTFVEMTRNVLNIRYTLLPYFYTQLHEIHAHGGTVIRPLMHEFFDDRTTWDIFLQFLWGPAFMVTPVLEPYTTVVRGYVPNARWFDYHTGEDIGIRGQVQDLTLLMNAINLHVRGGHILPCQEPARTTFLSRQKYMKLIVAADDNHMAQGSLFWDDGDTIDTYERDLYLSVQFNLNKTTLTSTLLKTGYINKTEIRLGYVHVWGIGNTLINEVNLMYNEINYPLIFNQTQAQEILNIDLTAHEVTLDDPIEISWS
T6 sequence (P07768 2-1007 partner limits assumed): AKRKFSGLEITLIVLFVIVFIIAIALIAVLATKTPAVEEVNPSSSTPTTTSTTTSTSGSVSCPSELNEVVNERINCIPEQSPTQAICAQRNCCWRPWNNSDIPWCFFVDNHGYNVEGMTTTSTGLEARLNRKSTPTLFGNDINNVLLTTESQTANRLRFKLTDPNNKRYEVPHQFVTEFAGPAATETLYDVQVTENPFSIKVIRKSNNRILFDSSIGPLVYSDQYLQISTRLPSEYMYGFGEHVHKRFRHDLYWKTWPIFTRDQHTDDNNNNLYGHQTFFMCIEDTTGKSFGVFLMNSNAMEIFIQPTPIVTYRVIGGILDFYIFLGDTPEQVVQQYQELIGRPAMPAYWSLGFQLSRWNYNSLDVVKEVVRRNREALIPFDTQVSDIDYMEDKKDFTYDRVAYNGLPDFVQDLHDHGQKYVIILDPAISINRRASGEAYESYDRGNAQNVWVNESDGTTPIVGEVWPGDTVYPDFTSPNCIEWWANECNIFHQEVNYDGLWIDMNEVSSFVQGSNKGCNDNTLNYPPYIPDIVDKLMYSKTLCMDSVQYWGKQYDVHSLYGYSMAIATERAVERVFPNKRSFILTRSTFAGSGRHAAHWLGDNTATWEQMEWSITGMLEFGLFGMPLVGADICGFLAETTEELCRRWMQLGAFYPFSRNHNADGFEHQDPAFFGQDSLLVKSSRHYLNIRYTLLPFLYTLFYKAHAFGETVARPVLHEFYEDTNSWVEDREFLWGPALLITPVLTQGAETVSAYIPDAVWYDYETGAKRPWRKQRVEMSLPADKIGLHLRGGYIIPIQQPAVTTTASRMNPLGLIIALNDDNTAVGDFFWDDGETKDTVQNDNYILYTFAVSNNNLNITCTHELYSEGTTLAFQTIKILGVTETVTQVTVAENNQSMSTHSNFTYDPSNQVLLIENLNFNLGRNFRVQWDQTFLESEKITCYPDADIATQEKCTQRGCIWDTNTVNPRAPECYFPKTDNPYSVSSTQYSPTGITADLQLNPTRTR

[7] = molecular target: T7, rabbit small intestine lactase (Oryctolagus cuniculus, UniProt P09849); test: Inhibition of rabbit small intestine lactase; type: biochemical
T7 construct: from tissue; host or cells: rabbit small intestine

[8] = molecular target: T8, rabbit small intestine trehalase (Oryctolagus cuniculus, UniProt P19813); test: Inhibition of rabbit small intestine trehalase; type: biochemical
T8 construct: from tissue; host or cells: rabbit small intestine

[9] = system: Na^+-dependent D-glucose uptake; test: Na+-dependent D-glucose uptake into intestinal brush border membrane vesicles; type: biochemical, ovine
B16-F10 tumour cells = test: Control of lung metastasis in mice (B16-F10); type: in vivo, C57/bl6 mice; conditions: 50 mg/kg s/c on days 2 and 4; lungs on day 14
Experimental: Mice (C57/bl6 under i/p ketamine anaesthesia) were challenged i/v (tail vein) with 5×10^4 B16-F10 tumour cells in a final volume of 100 μl per mouse on day 0. Test compounds (50 mg/kg in 200 μl sterile non-pyrogenic saline) were administered sic (right flank) on days 2 and 4. On day 14 the mice were sacrifices and the lungs dissected and stained in Indian ink solution (150 ml bidistilled water, 30 ml India Ink, 4 drops NH4OH) for 10 minutes then fixed for at least 24 hr in Fakete's solution (90 ml 37% formaldehyde, 900 ml 70% EtOH and 45 ml glacial acetic acid). The metastases in the stained and fixed lungs could then be visualized, counted and photographed.

dendritic cells = test: Induction of IL-12 secretion in dendritic cells (ELISA); type: cell-based, BALB/c mice; conditions: 50 μg/ml
B16G/F10 melanoma cells = test: B16/F10 melanoma lung colonies in mice; type: in vivo, C57BL/6 mice
Experimental: There were 5 treatment groups in the study, with 6 mice arbitrarily allocated to each group. The treatment groups were as follows:
The dose volume was the daily intake for all animals. Test substances were administered to mice in Groups 2, 3, 4 and 5, as solutions in sterile water for 41 h 32 min prior to tumour cell injection (Day 0 is the day of tumour cell injection).
Mice were injected intravenously, via a tail vein, with 0.1 ml of a suspension of B16G/F10 melanoma cells (approximately 1×10^5 cells/mouse) on Day 0.
All dosing solutions were prepared on the first day of dosing (Day −2) and were kept at room temperature.
Mice: Female C57BL/6 mice were supplied and delivered by Charles River UK Limited. The animals were approximately 6-8 weeks of age on arrival. The animals were acclimatized for 29 days prior to the start of the study, and the body weights at the start of dosing were in the range 18-23 g. During the study, the animals were housed in groups of up to 6 in pediatric filter-topped cages with sawdust bedding (autoclaved for sterility). The room and cages were cleaned at regular intervals each week to maintain hygiene. The mice were fed an expanded rodent diet of RM1(E) SQC (batch number 3822; Special Diets Services, Witham, UK) ad libitum and allowed access to sterilized water (N.V. Nutricia, Zoetermeer, The Netherlands). For Groups 2, 3, 4 and 5, the drinking water also contained the appropriate level of test substance for the duration of the dosing period. […] During the acclimatization and study period the temperature range in the rooms was 18-22° C. and the humidity range was 44-79%.
Tumour challenge: B18F10 murine tumour cells (Shrayer D, Bogaars H. Hearing V. J. Maizel A. & Wanebo H. Further characterization of a clinically relevant model of melanoma metastasis and an effective vaccine. Cancer Immunology, Immunotherapy 1995: 40; 277-282) were harvested from sub-confluent cultures growing in vitro, using minimum trypsination. They were washed in sterile phosphate buffered saline (PBS) and the number of viable cells determined. Cells were resuspended in sterile PBS at a concentration of […]. The mice were intravenously injected, via a tail vein, with 0.1 ml of cell suspension (i.e. approximately 1×10^5 cells/mouse) on Day 0. The mice were examined daily for signs of laboured breathing or distress due to extensive metastatic disease. Mice were exposed to the appropriate test substance for 41 h 32 min prior to tumour cell injection (from Day −2 to Day 0). Following tumour cell implant, the test substances were removed, and animals in all groups received drinking water alone for the remainder of the study.
Sampling and analysis: The animals were terminated on Day 21 (21 days after injection of the tumour cells). Blood samples were taken from 3 mice from each group on the day of termination. Animals were anaesthetized with carbon dioxide and blood samples of maximal volume taken by cardiac puncture and collected in plain tubes. Samples were left to clot at room temperature for a minimum of 1 h prior to serum removal, Serum samples were stored at approximately −70° C. prior to analysis. Immediately after performing the bleeds, the spleens were removed from the 3 selected mice. The spleens from these mice were pooled in a petri dish with approximately 3-5 ml of RPMI 1640 tissue culture medium (batch number 3092202; Invitrogen, Paisley, UK) containing 0.52% penicillin/streptomycin (Pen/Strep; batch number 44K2412; Sigma Aldrich, Poole, UK) prior to splenocyte isolation. The spleens from each group were placed in a glass homogeniser with an additional 10-15 ml of medium and homogenised until opaque. The suspension was then placed in a 50 ml centrifuge tube. On occasions when there was significant cell debris, this was allowed to settle before removing the suspension and placing in a fresh tube. The homogenate was then centrifuged at approximately 200×‘g’ for 5 min at approximately 4° C.

[10] = read-out: % inhibition, mannosidase

SMILES: O[C@H]1[C@H](O)[C@@H](O)CN2CC[C@H](O)[C@H]12 [Castanospermine (20), Castanospermine, reference compound]
- IFN-γ secretion/production in splenocytes (spleen cells): inhibits
- IFN-γ (spleen cells; + αCD3): 9.0 ng/mL
- IFN-γ (spleen cells; treatment alone): <1.0 ng/mL
- inhibition of yeast α-D-glucosidase (α-D-glucosidase [1]; 800 μM): not being inhibitory
- inhibition at 1000 µg/mL (α-D-glucosidase [1]; read-out: % inhibition, gluc (yeast)): -8%
- inhibition at 1000 µg/mL (α-D-glucosidase [2]; read-out: % inhibition, gluc (rice)): 77%
- % inhibition, gluc (Bacillus) (α-D-glucosidase [3]): 6%
- pKi (β-D-glucosidase): 5.05
- % inhibition, glucosidase (β-D-glucosidase; 1 mg/ml): 88%
- inhibition at 1000 µg/mL (α-D-galactosidase; first galactosidase line, read-out: % inhibition, galactosidase): -3%
- % inhibition, galactosidase (β-D-galactosidase; second galactosidase line): 16%
- inhibition at 1000 µg/mL (α-D-mannosidase; [10]): 9%
- inhibition at 1000 µg/mL (α-L-fucosidase; read-out: % inhibition, fucosidase): 3%
- % inhibition, Naringinase (Naringinase): 39%
- % inhibition, N-acetyl-β-gluc [4]: 16%
- pIC50 [5]: 5.10
- inhibition of rabbit small intestine sucrase [6]: inhibited
- inhibition at 700 µM [7]: > 50%
- inhibition at 700 µM [8]: > 50%
- Glucose uptake ([9]; initial rate, competition with labelled D-glucose, control 240): 225 pmol/s/mg
- glucose transport, effect ([9]; versus control): slightly inhibited

SMILES: OCCN1[C@H](CO)[C@@H](O)[C@H](O)[C@H]1CO [N-hydroxyethyl DMDP, N-hydroxyethyl-2,5-dihydroxymethyl-3,4-dihydroxypyrrolidine]
- inhibition at 1000 µg/mL (α-D-glucosidase [1]; read-out: % inhibition, α-gluc (yeast)): 56%
- inhibition at 1000 µg/mL (α-D-glucosidase [2]; read-out: % inhibition, α-gluc (rice)): 43%
- % inhibition, α-gluc (Bacillus) (α-D-glucosidase [3]): 85%
- % inhibition, β-glucosidase (β-D-glucosidase; 1 mg/ml): 64%
- inhibition at 1000 µg/mL (α-D-galactosidase; read-out: % inhibition, α-galactosidase): 7%
- % inhibition, β-galactosidase (β-D-galactosidase): 73%
- inhibition at 1000 µg/mL (α-D-mannosidase; read-out: % inhibition, α-mannosidase): 11%
- inhibition at 1000 µg/mL (α-L-fucosidase; read-out: % inhibition, α-fucosidase): -4%
- % inhibition, Naringinase (Naringinase): 22%
- % inhibition, N-acetyl-β-gluc [4]: 13%
- Metastatic morphology (B16-F10 tumour cells): Metastasis restricted to apical tip of lung

SMILES: O[C@H]1[C@H]2[C@H](O)CCCN2C[C@H]1O [Swainsonine (4), Swainsonine, reference compound]
- induction of IL-12 secretion (dendritic cells): failed to induce IL-12 secretion
- inhibition at 1000 µg/mL (α-D-mannosidase; [10]): 74%
- Colony Count (B16G/F10 melanoma cells; 3 μg/ml in drinking water before tumour cell injection, Day 21, mean ± s.e.m.): 21.33 ± 4.11
- % Reduction (B16G/F10 melanoma cells; 3 μg/ml in drinking water, versus vehicle): 69%
